Data reported in US11787785B2 (NOVARTIS AG, priority 2021, dated 2023).

Biological target: T1, WIZ protein (HiBit-WIZ fusion protein) (Homo sapiens, UniProt O95785+Q96SW2)
T1 construct: expressed in transfected cells
Test: Quantification of WIZ protein levels in HiBit tag fusion protein assay (WIZ HiBit assay in 293T cells)
Format: cell-based
Details: for Dmax at 25 µM / remaining activity at 25 µM: HEK-293T, 293T cells; for Dmax at 25 µM: 100 − Amax, read-out: % degradation of WIZ (100 − Amax); for remaining activity at 25 µM: DMSO-normalized, curve-fitted percentage of WIZ-HiBit remaining at 25 uM, read-out: WIZ Amax; for DC50: WIZ HiBit assay in 293T cells, 10-point, 5-fold dose response, highest concentration 25 μM, about 18 hours, read-out: WIZ AC50
How it was run: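 Luminescence after LgBit complementation quantified remaining HiBit-WIZ in lysates of single-copy stable 293T lines. Cells dosed ~18 h at 37 °C with 10-point, 5-fold dilutions (highest 25 μM); DMSO set to 100%, fitted curve gave % remaining at 25 μM (Amax).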

T1 sequence (O95785 whole entry, the tested form may be a part): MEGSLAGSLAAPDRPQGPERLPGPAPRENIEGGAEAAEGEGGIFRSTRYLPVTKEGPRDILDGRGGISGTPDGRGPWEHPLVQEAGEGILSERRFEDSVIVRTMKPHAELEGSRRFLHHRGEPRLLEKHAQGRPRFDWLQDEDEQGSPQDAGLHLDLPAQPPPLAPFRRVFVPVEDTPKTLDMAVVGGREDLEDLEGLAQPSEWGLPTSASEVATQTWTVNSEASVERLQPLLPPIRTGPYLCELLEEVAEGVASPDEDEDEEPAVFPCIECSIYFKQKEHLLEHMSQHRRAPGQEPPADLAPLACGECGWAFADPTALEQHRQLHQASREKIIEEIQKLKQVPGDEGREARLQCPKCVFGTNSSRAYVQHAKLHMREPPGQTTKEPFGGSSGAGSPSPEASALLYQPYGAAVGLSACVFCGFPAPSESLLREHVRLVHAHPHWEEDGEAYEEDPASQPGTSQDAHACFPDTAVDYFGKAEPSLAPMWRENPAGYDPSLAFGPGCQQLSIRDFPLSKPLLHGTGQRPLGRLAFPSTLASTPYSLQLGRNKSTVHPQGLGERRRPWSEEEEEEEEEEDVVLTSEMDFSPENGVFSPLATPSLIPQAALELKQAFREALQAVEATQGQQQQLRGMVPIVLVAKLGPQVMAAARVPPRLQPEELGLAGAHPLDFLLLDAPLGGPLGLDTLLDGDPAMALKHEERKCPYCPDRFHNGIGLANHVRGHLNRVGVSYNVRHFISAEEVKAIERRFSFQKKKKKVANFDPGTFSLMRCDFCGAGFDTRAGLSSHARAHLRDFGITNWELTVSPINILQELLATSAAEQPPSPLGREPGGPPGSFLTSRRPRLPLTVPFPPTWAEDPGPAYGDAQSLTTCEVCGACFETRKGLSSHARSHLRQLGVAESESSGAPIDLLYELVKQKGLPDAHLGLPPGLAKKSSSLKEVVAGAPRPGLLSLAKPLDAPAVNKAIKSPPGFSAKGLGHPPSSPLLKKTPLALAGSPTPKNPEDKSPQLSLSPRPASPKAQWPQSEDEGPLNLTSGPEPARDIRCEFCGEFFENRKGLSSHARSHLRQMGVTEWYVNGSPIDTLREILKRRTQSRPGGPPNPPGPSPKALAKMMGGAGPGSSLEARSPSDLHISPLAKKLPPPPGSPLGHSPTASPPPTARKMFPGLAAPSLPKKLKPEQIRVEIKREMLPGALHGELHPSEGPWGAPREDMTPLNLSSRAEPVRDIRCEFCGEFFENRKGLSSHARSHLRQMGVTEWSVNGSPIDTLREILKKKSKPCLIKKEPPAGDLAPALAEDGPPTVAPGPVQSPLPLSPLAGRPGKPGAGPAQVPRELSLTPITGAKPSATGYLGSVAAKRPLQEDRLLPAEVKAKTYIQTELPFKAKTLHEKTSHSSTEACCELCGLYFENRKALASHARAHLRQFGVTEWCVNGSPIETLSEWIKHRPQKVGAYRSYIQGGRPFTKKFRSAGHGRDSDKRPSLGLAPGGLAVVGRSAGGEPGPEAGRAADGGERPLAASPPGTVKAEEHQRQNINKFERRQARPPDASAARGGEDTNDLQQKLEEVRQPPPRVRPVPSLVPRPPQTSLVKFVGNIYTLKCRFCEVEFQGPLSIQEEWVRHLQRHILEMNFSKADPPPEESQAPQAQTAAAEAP
T1 sequence (Q96SW2 whole entry, the tested form may be a part): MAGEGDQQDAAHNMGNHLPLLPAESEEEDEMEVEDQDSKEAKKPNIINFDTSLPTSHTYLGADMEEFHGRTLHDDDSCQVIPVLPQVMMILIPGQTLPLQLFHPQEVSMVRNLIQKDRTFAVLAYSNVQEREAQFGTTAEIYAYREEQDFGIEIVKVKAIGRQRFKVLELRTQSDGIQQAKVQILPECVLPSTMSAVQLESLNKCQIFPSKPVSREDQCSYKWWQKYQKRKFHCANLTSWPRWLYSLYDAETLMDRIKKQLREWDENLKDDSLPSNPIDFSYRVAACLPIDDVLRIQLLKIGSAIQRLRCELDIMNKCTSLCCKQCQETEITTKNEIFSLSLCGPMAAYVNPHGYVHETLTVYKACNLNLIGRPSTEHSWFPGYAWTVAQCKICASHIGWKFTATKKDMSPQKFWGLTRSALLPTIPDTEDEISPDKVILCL
T1 sequence (Q16531 whole entry partner, the tested form may be a part): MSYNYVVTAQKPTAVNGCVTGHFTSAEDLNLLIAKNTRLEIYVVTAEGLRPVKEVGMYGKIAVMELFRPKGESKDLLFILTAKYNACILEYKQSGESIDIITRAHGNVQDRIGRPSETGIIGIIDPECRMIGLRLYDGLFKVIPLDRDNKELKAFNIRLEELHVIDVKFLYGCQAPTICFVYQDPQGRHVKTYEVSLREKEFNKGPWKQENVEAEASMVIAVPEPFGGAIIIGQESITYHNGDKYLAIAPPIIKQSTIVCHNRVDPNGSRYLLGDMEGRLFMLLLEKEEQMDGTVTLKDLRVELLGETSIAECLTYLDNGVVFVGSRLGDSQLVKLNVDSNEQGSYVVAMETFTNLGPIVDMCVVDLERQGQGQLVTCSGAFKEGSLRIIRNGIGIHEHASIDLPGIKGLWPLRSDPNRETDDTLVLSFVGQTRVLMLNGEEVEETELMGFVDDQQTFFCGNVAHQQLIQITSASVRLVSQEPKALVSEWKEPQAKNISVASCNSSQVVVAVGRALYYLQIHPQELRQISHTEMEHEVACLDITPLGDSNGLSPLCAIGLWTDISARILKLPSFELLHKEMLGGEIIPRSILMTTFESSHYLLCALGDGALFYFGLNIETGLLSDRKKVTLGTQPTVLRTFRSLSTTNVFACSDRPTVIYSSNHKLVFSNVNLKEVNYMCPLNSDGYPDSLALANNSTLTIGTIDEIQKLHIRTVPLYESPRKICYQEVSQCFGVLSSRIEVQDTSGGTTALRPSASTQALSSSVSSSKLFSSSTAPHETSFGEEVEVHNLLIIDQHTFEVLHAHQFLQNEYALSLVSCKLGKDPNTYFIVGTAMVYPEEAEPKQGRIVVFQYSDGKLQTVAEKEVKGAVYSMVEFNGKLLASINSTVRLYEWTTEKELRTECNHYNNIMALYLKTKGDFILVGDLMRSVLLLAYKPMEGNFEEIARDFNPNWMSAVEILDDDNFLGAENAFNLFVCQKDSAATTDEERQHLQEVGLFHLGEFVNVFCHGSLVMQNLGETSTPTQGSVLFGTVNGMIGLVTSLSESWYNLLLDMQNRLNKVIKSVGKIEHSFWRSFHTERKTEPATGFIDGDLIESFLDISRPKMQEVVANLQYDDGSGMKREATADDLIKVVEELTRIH

Row | Structure (SMILES) | Dmax at 25 µM | remaining activity at 25 µM | DC50
1 | CC(C)(F)CN1CCC(Cc2ccn3ncc(N4CCC(=O)NC4=O)c3c2)CC1 [Example 39, 1-(5-((1-(2-fluoro-2-methylpropyl)piperidin-4-yl)methyl)pyrazolo[1,5-a]pyridin-3-yl)dihydropyrimidine-2,4(1H,3H)-dione] | 71% | 29% | 83 nM
2 | O=C1CCN(c2cnn3ccc(CC4CCN(CC5CC5)CC4)cc23)C(=O)N1 [Example 5, 1-(5-((1-(cyclopropylmethyl)piperidin-4-yl)methyl)pyrazolo[1,5-a]pyridin-3-yl)dihydropyrimidine-2,4(1H,3H)-dione] | 89% | 11% | 204 nM
3 | C[C@H]1CN(Cc2ccn3ncc(N4CCC(=O)NC4=O)c3c2)CCN1C1CCC(F)(F)CC1 [Example 334] | 85% | 15% | 32 nM
4 | O=C1CCN(c2cnn3ccc(CN4CCN(CC5CC(F)(F)C5)CC4)cc23)C(=O)N1 [Example 174] | 81% | 19% | 95 nM
5 | CC(C)CN1[C@@H](C)CN(Cc2ccn3ncc(N4CCC(=O)NC4=O)c3c2)C[C@@H]1C [Example 259, 1-(5-(((3S,5S)-4-isobutyl-3,5-dimethylpiperazin-1-yl)methyl)pyrazolo[1,5-a]pyridin-3-yl)dihydropyrimidine-2,4(1H,3H)-dione] | 61% | 39% | 258 nM
6 | C[C@H]1CN(Cc2ccn3ncc(N4CCC(=O)NC4=O)c3c2)CCN1Cc1cccnc1 [Example 208] | 60% | 40% | 580 nM
7 | O=C1CCN(c2cnn3ccc(CN4CCN5CCCC[C@@H]5C4)cc23)C(=O)N1 [Example 313, (R)-1-(5-((octahydro-2H-pyrido[1,2-a]pyrazin-2-yl)methyl)pyrazolo[1,5-a]pyridin-3-yl)dihydropyrimidine-2,4(1H,3H)-dione] | 70% | 30% | 85 nM
8 | COc1cn(-c2cnn3ccc(C[C@@H]4CCN(CC5CCC(F)(F)CC5)[C@@H](C)C4)cc23)c(=O)[nH]c1=O [Example 353, 1-(5-(((2S,4R)-1-((4,4-difluorocyclohexyl)methyl)-2-methylpiperidin-4-yl)methyl)pyrazolo[1,5-a]pyridin-3-yl)-5-methoxypyrimidine-2,4(1H,3H)-dione] | 70% | 30% | 9100 nM
9 | CCCC(CCC)N1CCC(Cc2ccn3ncc(N4CCC(=O)NC4=O)c3c2)CC1 [Example 12, 1-(5-((1-(heptan-4-yl)piperidin-4-yl)methyl)pyrazolo[1,5-a]pyridin-3-yl)dihydropyrimidine-2,4(1H,3H)-dione] | 84% | 16% | 51 nM
10 | O=C1CCN(c2cnn3ccc(CC4CCN(C[C@H]5C[C@@H](F)[C@@H](F)C5)CC4)cc23)C(=O)N1 [Example 301, 1-(5-((1-(((1r,3R,4S)-3,4-difluorocyclopentyl)methyl)piperidin-4-yl)methyl)pyrazolo[1,5-a]pyridin-3-yl)dihydropyrimidine-2,4(1H,3H)-dione] | 86% | 14% | 2 nM
11 | C[C@H]1CN(Cc2ccn3ncc(N4CCC(=O)NC4=O)c3c2)CCN1CC1CC2(COC2)C1 [Example 325, (S)-1-(5-((4-((2-oxaspiro[3.3]heptan-6-yl)methyl)-3-methylpiperazin-1-yl)methyl)pyrazolo[1,5-a]pyridin-3-yl)dihydropyrimidine-2,4(1H,3H)-dione] | 82% | 18% | 47 nM
12 | O=C1CCN(c2cnn3ccc(CC4CCN(CC5CCCCC5)C4)cc23)C(=O)N1 (stereo not drawn) [Example 128] | 29% | 71% | 830 nM
13 | C[C@H]1CN(Cc2ccn3ncc(N4CCC(=O)NC4=O)c3c2)CCN1CCC1CCOCC1 [Example 206] | 78% | 22% | 193 nM
14 | CCC(CC)N1CCC(Cc2ccn3ncc(N4CCC(=O)NC4=O)c3c2)CC1 [Example 20, 1-(5-((1-(pentan-3-yl)piperidin-4-yl)methyl)pyrazolo[1,5-a]pyridin-3-yl)dihydropyrimidine-2,4(1H,3H)-dione] | 79% | 21% | 22 nM
15 | C[C@H]1CN(CC2CC(F)(F)C2)CCN1Cc1ccn2ncc(N3CCC(=O)NC3=O)c2c1 [Example 226, (S)-1-(5-((4-((3,3-difluorocyclobutyl)methyl)-2-methylpiperazin-1-yl)methyl)pyrazolo[1,5-a]pyridin-3-yl)dihydropyrimidine-2,4(1H,3H)-dione] | 45% | 55% | 1230 nM
16 | O=C1CCN(c2cnn3ccc(CN4C[C@H]5CC[C@@H](C4)N5CC4CCCCC4)cc23)C(=O)N1 [Example 252, 1-(5-(((1R,5S)-8-(cyclohexylmethyl)-3,8-diazabicyclo[3.2.1]octan-3-yl)methyl)pyrazolo[1,5-a]pyridin-3-yl)dihydropyrimidine-2,4(1H,3H)-dione] | 42% | 58% | 277 nM
17 | Cn1nccc1CN1CCC(Cc2ccn3ncc(N4CCC(=O)NC4=O)c3c2)CC1 [Example 114] | 68% | 32% | 90 nM
18 | CO[C@H]1C[C@H](CN2CC[C@@H](Cc3ccn4ncc(N5CCC(=O)NC5=O)c4c3)C[C@@H]2C)C1 [Example 302, 1-(5-(((2S,4R)-1-(((1r,3S)-3-methoxycyclobutyl)methyl)-2-methylpiperidin-4-yl)methyl)pyrazolo[1,5-a]pyridin-3-yl)dihydropyrimidine-2,4(1H,3H)-dione] | 84% | 16% | 42 nM
19 | C[C@H]1C[C@H](Cc2ccn3ncc(N4CCC(=O)NC4=O)c3c2)CCN1C[C@H]1CCC(F)(F)C1 [Example 307, 1-(5-(((2S,4R)-1-(((S)-3,3-difluorocyclopentyl)methyl)-2-methylpiperidin-4-yl)methyl)pyrazolo[1,5-a]pyridin-3-yl)dihydropyrimidine-2,4(1H,3H)-dione] | 84% | 16% | 6 nM
20 | CC(C)(O)CN1CCC(Cc2ccn3ncc(N4CCC(=O)NC4=O)c3c2)CC1 [Example 106, 1-(5-((1-(2-hydroxy-2-methylpropyl)piperidin-4-yl)methyl)pyrazolo[1,5-a]pyridin-3-yl)dihydropyrimidine-2,4(1H,3H)-dione] | 68% | 32% | 283 nM
21 | CC(C)CN1CCC(C(C)c2ccn3ncc(N4CCC(=O)NC4=O)c3c2)CC1 (stereo not drawn) [Example 267, 1-(5-(1-(1-isobutylpiperidin-4-yl)ethyl)pyrazolo[1,5-a]pyridin-3-yl)dihydropyrimidine-2,4(1H,3H)-dione] | 86% | 14% | 100 nM
22 | O=C1CCN(c2cnn3ccc(CC4CCN(Cc5cscn5)CC4)cc23)C(=O)N1 [Example 115] | 54% | 46% | 267 nM
